Target: T1, RpFNR (R. palustris TrxR-type FNR) (Rhodopseudomonas palustris, UniProt Q6N2U4)
T1 construct: gene RPA3954; domains span residues 2-344
Assay: steady-state spectrophotometric NADPH:juglone reductase inhibition
Type: biochemical
Conditions: read-out: Kis

T1 sequence (Q6N2U4 whole entry, the tested form may be a part): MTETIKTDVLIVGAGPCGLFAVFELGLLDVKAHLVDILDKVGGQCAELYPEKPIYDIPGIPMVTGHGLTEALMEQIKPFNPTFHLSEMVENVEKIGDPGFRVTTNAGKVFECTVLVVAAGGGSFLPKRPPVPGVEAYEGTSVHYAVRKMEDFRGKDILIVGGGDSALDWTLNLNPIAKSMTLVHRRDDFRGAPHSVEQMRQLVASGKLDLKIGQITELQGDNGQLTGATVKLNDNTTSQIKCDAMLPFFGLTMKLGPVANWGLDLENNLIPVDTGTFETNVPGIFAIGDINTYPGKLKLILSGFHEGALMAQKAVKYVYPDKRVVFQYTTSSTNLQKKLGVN

Ki: 150 ± 10 µM
Compound: NC(=O)c1ccc[n+]([C@@H]2O[C@H](COP(=O)(O)OP(=O)(O)OC[C@H]3O[C@@H](n4cnc5c(N)ncnc54)[C@H](OP(=O)(O)O)[C@@H]3O)[C@@H](O)[C@H]2O)c1 [NADP^+]
